The record followed here is ChEMBL document CHEMBL1201862, “PubChem BioAssay data set” (2004).

Molecules are shown by their SMILES.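 These data come from cells grown in 96-well plates and exposed to compound for 48 hours at five concentrations. GI50: concentration for 50% inhibition of growth.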 Active and inactive are the calls of the source. No stated cut-off is given here; in the data, active = GI50 up to about 1.1 µM and inactive = higher. Bounds are passed on as bounds.

Some test systems named below: SF-268; HL-60; PC-3; HCT-15; U-251; Hs-578T; HOP-62; Malme-3M; MOLT-4; RPMI-8226; UO-31; NCI-H23; MDA-MB-435; OVCAR-3; OVCAR-5; SK-MEL-2; SW-620; COLO 205; NCI-H226.
Experiment in all cases: NCI anticancer screen, dose series, 48 h

In the case of `O=C1C=C2CO[C@H]3OC[C@H](O)[C@@H]1[C@@H]23`, the GI50 with SF-268 was 36.2 µM (inactive); in the test on HL-60 it was 23.6 µM (inactive); in the test on PC-3, > 100 µM (inactive); in the test on HCT-15 it was 44 µM; in the test on U-251, 19.7 µM (inactive); in the test on Hs-578T, > 100 µM (inactive). The GI50 in the test on HOP-62 was > 100 µM (inactive); with Malme-3M, 21.6 µM (inactive); in the test with MOLT-4 it was 28.9 µM (inactive); in the test on RPMI-8226, 20.4 µM (inactive); in the test on UO-31 it was 37.3 µM (inactive); with NCI-H23, > 100 µM (inactive). For the same compound, the GI50 in the test with MDA-MB-435 was 30.9 µM (inactive); in the test on OVCAR-3, > 100 µM (inactive); in the test on OVCAR-5 it was 73.5 µM (inactive); with SK-MEL-2, 16.3 µM (inactive); in the test with SW-620, 30.1 µM (inactive); in the test on COLO 205, 16.4 µM (inactive).
With `CC(=O)O[C@H]1CC[C@H]2[C@@H]3CCC4=C(C(=O)C=CC4(C)OC(C)=O)[C@H]3CC[C@]12C` (stereo partly drawn), the GI50 with NCI-H226 is > 100 µM (inactive); with SF-268, 83.4 µM (inactive); with HL-60, 27.3 µM (inactive); in the test with PC-3, 48 µM (inactive); with HCT-15, 64.3 µM; in the test on U-251, 82.6 µM (inactive). Also, the GI50 in the test on Hs-578T is > 100 µM (inactive); in the test with HOP-62, > 100 µM (inactive); with Malme-3M, > 100 µM (inactive); in the test with MOLT-4 it was 33.9 µM (inactive); with RPMI-8226 it was 38.3 µM (inactive); in the test on UO-31 it was 55.3 µM (inactive). The GI50 in the test with NCI-H23 is 35.8 µM (inactive); in the test on MDA-MB-435, 49.4 µM (inactive); with OVCAR-3 it was 47.6 µM (inactive); in the test with OVCAR-5, > 100 µM (inactive); in the test on SW-620, 35.8 µM (inactive).
Regarding `S=C(N/N=C/c1ccccn1)N1CCCCC1`, the GI50 was < 0.0178 µM (active) with SF-268; < 0.01 µM (active) with HL-60; < 0.01 µM (active) with PC-3; less than 0.01 µM in the test with HCT-15; < 0.0126 µM (active) in the test with U-251; 0.902 µM (active) in the test with Hs-578T. In addition, the GI50 in the test on HOP-62 is < 0.01 µM (active); in the test with Malme-3M, < 0.0397 µM (active); with MOLT-4, < 0.01 µM (active); with RPMI-8226, < 0.01 µM (active); in the test with UO-31 it was 0.0131 µM (active); with NCI-H23 it was < 0.01 µM (active). Besides, the GI50 in the test with MDA-MB-435 is 0.163 µM (active); in the test with OVCAR-3 it was < 0.01 µM (active); with SK-MEL-2, 0.0695 µM (active); in the test with SW-620 it was < 0.0122 µM (active); with COLO 205, < 0.01 µM (active).
For the compound `CC(=O)Nc1ccc(N2C(=O)CS(=O)(=O)C2c2cccc(Oc3ccccc3)c2)cc1` (stereo not drawn), the GI50 with NCI-H226 was 17.2 µM (inactive); in the test on SF-268, 20.2 µM (inactive); with HL-60, 23.5 µM (inactive); in the test on PC-3, 16.8 µM (inactive); in the test with HCT-15, 17.3 µM; in the test with U-251 it was 17.7 µM (inactive). Besides, the GI50 in the test with Hs-578T was 28.9 µM (inactive); in the test on HOP-62, 19.3 µM (inactive); in the test with Malme-3M it was 20.4 µM (inactive); in the test on MOLT-4, 29.7 µM (inactive); with UO-31, 17.5 µM (inactive); in the test on NCI-H23, 18.5 µM (inactive). Besides, the GI50 was 21.2 µM (inactive) in the test on MDA-MB-435; 17.5 µM (inactive) in the test on OVCAR-3; 17.6 µM (inactive) with OVCAR-5; 19.2 µM (inactive) in the test on SK-MEL-2; 28.9 µM (inactive) with SW-620; 17.2 µM (inactive) in the test with COLO 205.
Turning to `COc1cc(/C=C2\N=C(c3ccccc3)N(c3nc4c(Cl)cc(Cl)cc4s3)C2=O)ccc1O`, the GI50 in the test with SF-268 was 30.1 µM (inactive); in the test on HL-60, 16.3 µM (inactive); in the test with PC-3, 19.5 µM (inactive); with HCT-15, 31.3 µM; with U-251, 22.9 µM (inactive); in the test with Hs-578T it was 18.2 µM (inactive). For the same compound, the GI50 was 32 µM (inactive) in the test with HOP-62; 0.059 µM (active) in the test on MOLT-4; 8.53 µM (inactive) in the test with RPMI-8226; 27 µM (inactive) in the test with UO-31; 27.5 µM (inactive) in the test on MDA-MB-435; 24.2 µM (inactive) in the test on OVCAR-3. The GI50 in the test on OVCAR-5 is 71 µM (inactive); in the test on SK-MEL-2 it was 23.4 µM (inactive); in the test with SW-620, 32.4 µM (inactive); in the test with COLO 205, 43.4 µM (inactive).
For `COc1ccc(-c2nnc3n(C)c4ccccc4n3c2=O)cc1`, the GI50 is > 100 µM (inactive) in the test with NCI-H226; 29.6 µM (inactive) with SF-268; > 100 µM (inactive) in the test on HL-60; > 100 µM (inactive) in the test on PC-3; greater than 100 µM in the test on HCT-15; 27.7 µM (inactive) with U-251. Moreover, the GI50 in the test with Hs-578T was 33 µM (inactive); with HOP-62, 14.5 µM (inactive); in the test on Malme-3M, > 100 µM (inactive); in the test on MOLT-4, > 100 µM (inactive); in the test on UO-31, 42.8 µM (inactive); in the test on NCI-H23, 40.1 µM (inactive). The GI50 with MDA-MB-435, in the test on OVCAR-5, in the test with SK-MEL-2, in the test with SW-620 and in the test on COLO 205 was > 100 µM (inactive) in each case.
For the compound `CC(=O)OCC1=CC2OC(=O)C3=COC(OC4OC(CO)C(O)C(O)C4O)C1C32` (stereo not drawn), the GI50 in the test on NCI-H226 is > 100 µM (inactive); in the test with SF-268, > 100 µM (inactive); with HL-60 it was > 100 µM (inactive); with PC-3, > 100 µM (inactive); in the test with HCT-15, greater than 100 µM; with U-251, > 100 µM (inactive). Also, the GI50 with Hs-578T, in the test on HOP-62, in the test with RPMI-8226, with UO-31, in the test on NCI-H23 and in the test on MDA-MB-435 was > 100 µM (inactive) throughout. Further, the GI50 with OVCAR-3, with OVCAR-5, with SK-MEL-2, in the test with SW-620 and in the test on COLO 205 was > 100 µM (inactive) in each case.
Take `Cc1cccc(C)c1NC(=O)C(=O)C(c1ccccc1Cl)S(=O)(=O)Cc1ccccc1Cl` (stereo not drawn): the GI50 is > 100 µM (inactive) with NCI-H226; 22.9 µM (inactive) in the test with SF-268; 0.236 µM (active) in the test with HL-60; > 100 µM (inactive) with PC-3; greater than 100 µM in the test on HCT-15; 40.6 µM (inactive) with U-251. Also, the GI50 in the test with Hs-578T was 41.4 µM (inactive); in the test with HOP-62, 18 µM (inactive); in the test with MOLT-4 it was > 100 µM (inactive); with RPMI-8226, > 100 µM (inactive); in the test with UO-31, > 100 µM (inactive); in the test with NCI-H23 it was 34.5 µM (inactive). Moreover, the GI50 was > 100 µM (inactive) with MDA-MB-435; > 100 µM (inactive) with OVCAR-3; > 100 µM (inactive) in the test with OVCAR-5; > 83.8 µM (inactive) with SK-MEL-2; > 100 µM (inactive) in the test on SW-620; > 100 µM (inactive) in the test on COLO 205.
Turning to `COC(=O)c1cnc(Cl)c([N+](=O)[O-])c1`, the GI50 in the test with NCI-H226 is 16.9 µM (inactive); in the test on SF-268, 2.64 µM (inactive); in the test with HL-60, 2.42 µM (inactive); in the test on PC-3, 10.7 µM (inactive); in the test with HCT-15, 2 µM; with U-251, 2.16 µM (inactive). For the same compound, the GI50 in the test on Hs-578T was 22.4 µM (inactive); in the test with HOP-62, 19.1 µM (inactive); in the test on MOLT-4, 2.42 µM (inactive); in the test with RPMI-8226, 2.52 µM (inactive); in the test on UO-31 it was 1.96 µM (inactive); in the test on NCI-H23, 17.3 µM (inactive). In addition, the GI50 in the test on MDA-MB-435 is 6.22 µM (inactive); in the test with OVCAR-3, 14.8 µM (inactive); with OVCAR-5, 17.7 µM (inactive); in the test on SK-MEL-2, 16.1 µM (inactive); in the test with SW-620, 2.03 µM (inactive); in the test on COLO 205 it was 3.54 µM (inactive).
Turning to `Clc1cc(OC23CC4CC(CC(C4)C2)C3)nc(Cl)n1`, the GI50 in the test on SF-268 was 69.8 µM (inactive); in the test with HL-60, 10 µM (inactive); with PC-3, > 100 µM (inactive); in the test with HCT-15 it was 29.6 µM; in the test on U-251, 55.8 µM (inactive); in the test on Hs-578T it was 22.8 µM (inactive). Moreover, the GI50 with HOP-62 was > 100 µM (inactive); with Malme-3M it was > 100 µM (inactive); in the test on MOLT-4, 34 µM (inactive); in the test with RPMI-8226 it was 37.9 µM (inactive); in the test with UO-31, 25.4 µM (inactive); with NCI-H23, 58.7 µM (inactive). The GI50 was 39.2 µM (inactive) with MDA-MB-435; 39.2 µM (inactive) in the test with OVCAR-3; > 100 µM (inactive) in the test on OVCAR-5; 29.6 µM (inactive) in the test on SK-MEL-2; 41.2 µM (inactive) in the test with SW-620; 56.6 µM (inactive) in the test on COLO 205.
On to `CCCCCCCCCCCCCCCCOC[C@H](COC(c1ccccc1)(c1ccccc1)c1ccccc1)O[PH](=S)OC` (stereo partly drawn), for which the GI50 was > 100 µM (inactive) in the test with NCI-H226; > 100 µM (inactive) with SF-268; > 100 µM (inactive) with HL-60; > 100 µM (inactive) in the test on PC-3; greater than 100 µM in the test on HCT-15; > 100 µM (inactive) in the test on U-251. Besides, the GI50 with Hs-578T, in the test on MOLT-4, in the test on RPMI-8226, in the test on UO-31, in the test with NCI-H23 and in the test with MDA-MB-435 was > 100 µM (inactive) each time. The GI50 in the test on OVCAR-3, in the test on OVCAR-5, with SK-MEL-2, with SW-620 and with COLO 205 was > 100 µM (inactive) in each case.
Turning to `Cc1ccc(S(=O)(=O)NNC(=O)c2cc(C)c(C)cc2N)cc1`, the GI50 in the test with NCI-H226 is > 100 µM (inactive); with HL-60 it was > 100 µM (inactive); in the test with PC-3, > 100 µM (inactive); in the test on HCT-15, greater than 100 µM; with U-251, > 100 µM (inactive); in the test on Hs-578T, 84.1 µM (inactive). The GI50 in the test on HOP-62 is > 100 µM (inactive); in the test on Malme-3M, > 100 µM (inactive); in the test on MOLT-4, 66.2 µM (inactive); with RPMI-8226, > 100 µM (inactive); with UO-31 it was > 100 µM (inactive); with NCI-H23 it was > 100 µM (inactive). The GI50 in the test with MDA-MB-435 was > 100 µM (inactive); in the test on OVCAR-3 it was 94.2 µM (inactive); in the test on OVCAR-5, > 100 µM (inactive); with SW-620, > 100 µM (inactive); in the test with COLO 205 it was > 100 µM (inactive).
